# US9416348B2, “Hepatocyte-like cells and uses thereof” (priority 2010, dated 2016)
# Tested on: iHep cells
# Experiment: CYP metabolism assay, iHep cells incubated with substrate, metabolite by LC-MS/MS
# Conditions: for 4′-OH-Diclotenac: mouse, 3 h
# Method: To determine Alb secretion, TTFs transduced with three factors were cultured in the medium without phenol red. Culture supernatant was collected 24 h after medium change. The amount of Alb in the supernatant was determined by the mouse albumin ELISA kit (BETHYL LABORATORY) according to the manufacturer's instructions. […] The supernatants were collected for measurement of indicated productions by LC-MS/MS (AGILENT 1200 HPLC and ABI 4000 mass-spectrometer). Freshly isolated hepatocytes were used as a positive control. Total cell protein amount was used to normalize the data.
# Metabolites of these chemicals were measured by liquid chromatography-tandem mass spectrometry (LC/MS/MS) according to each standard curve.
Compound,4′-OH-Diclotenac (12.5 μM) [pmol/min/mg protein],4′-OH-Diclotenac (25 μM) [pmol/min/mg protein],4′-OH-Diclotenac (50 μM) [pmol/min/mg protein],4′-OH-Diclotenac (100 μM) [pmol/min/mg protein],"metabolism by iHep cells (iHep cells, P<0.05)"
"O=C(O)Cc1ccccc1Nc1c(Cl)cccc1Cl [Diclofenac, diclofenac]",0.0,17.0 ± 8.0,195.4 ± 16.0,483.3 ± 60.1,
"C[C@]12CC[C@H]3[C@@H](CCC4=CC(=O)CC[C@@]43C)[C@@H]1CC[C@@H]2O [Testosterone, testosterone]",,,,,metabolized
